The text below walks through data of patent publication US20130090315A1 (priority 2011, published 2013).

The test system of one data set is rats suffering from TBI. The following applies: 16 mg/kg, 72 hours post-injury, FIG. 1, p<0.05; cited from earlier work.
The next data set deals with rats following injury. Particulars: cited from earlier work.
The test system of data set [1] is rats that have suffered a concussion. Briefly: Morris Water Maze latency to platform in mTBI (concussion) model. The format is in vivo. Particulars: versus vehicle-injured rats, FIG. 8.
In data set [2] the test system is moderate to severe TBI patients. Particulars: cited from earlier work.
For the next data set, the system named is males. The following applies: in males; cited from earlier work.
The test system of a further data set is glutathione reductase. The following applies: 72 hours post-injury, compared to all other groups, FIG. 2, p<0.01; cited from earlier work.
Data set [3] has as its target T1, progesterone receptor (PR) (Homo sapiens, UniProt P06401).
T1 sequence (P06401 1-933): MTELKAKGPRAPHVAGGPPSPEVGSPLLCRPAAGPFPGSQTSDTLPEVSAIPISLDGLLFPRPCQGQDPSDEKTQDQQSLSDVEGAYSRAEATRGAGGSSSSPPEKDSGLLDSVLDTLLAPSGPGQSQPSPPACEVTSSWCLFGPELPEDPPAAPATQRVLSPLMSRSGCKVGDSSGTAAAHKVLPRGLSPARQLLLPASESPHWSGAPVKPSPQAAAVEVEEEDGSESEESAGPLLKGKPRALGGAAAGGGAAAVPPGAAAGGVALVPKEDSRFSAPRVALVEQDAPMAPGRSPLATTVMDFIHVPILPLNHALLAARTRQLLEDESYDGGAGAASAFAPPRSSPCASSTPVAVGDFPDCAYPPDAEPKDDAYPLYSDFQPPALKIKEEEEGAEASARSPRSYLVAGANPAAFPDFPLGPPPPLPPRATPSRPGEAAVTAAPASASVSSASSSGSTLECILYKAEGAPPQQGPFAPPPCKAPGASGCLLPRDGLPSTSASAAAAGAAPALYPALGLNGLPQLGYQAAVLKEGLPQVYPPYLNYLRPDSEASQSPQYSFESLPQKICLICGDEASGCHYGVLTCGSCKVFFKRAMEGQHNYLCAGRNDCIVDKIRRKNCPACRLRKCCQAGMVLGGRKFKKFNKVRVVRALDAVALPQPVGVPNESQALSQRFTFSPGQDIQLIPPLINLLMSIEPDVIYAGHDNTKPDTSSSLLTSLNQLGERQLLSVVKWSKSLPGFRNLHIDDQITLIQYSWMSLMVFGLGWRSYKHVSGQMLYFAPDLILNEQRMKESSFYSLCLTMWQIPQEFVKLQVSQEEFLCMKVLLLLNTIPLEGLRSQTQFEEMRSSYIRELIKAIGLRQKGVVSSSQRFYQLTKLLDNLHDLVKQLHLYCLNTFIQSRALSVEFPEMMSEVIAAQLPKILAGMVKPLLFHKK
The following applies: cited from earlier work.

Turning to `CC(=O)[C@H]1CC[C@H]2[C@@H]3CC[C@H]4C[C@H](O)CC[C@]4(C)[C@H]3CC[C@]12C` [ALLO, allopregnanolone], the “brain water content (measure of edema)” value in the data set with rats suffering from TBI is given as “normalizes brain water content”. For the same compound, in the data set on rats following injury, the “factors of cell death (caspase-3) and gliosis (GFAP)” value was “decreased of the presence of the factors of cell death (caspase-3) and gliosis (GFAP)”.
For the compound `CC(=O)[C@H]1CC[C@H]2[C@@H]3CCC4=CC(=O)CC[C@]4(C)[C@H]3CC[C@]12C` [Prog, progesterone], the “latency to platform, post-acute administration” value in data set [1] (15 minutes post mTBI) was “decreases latency to platform”. The “latency to platform, prophylactic administration” value in data set [1] (15 minutes prior to mTBI) is on record as “decreases latency to platform”. The “brain water content (measure of edema)” value with rats suffering from TBI was “normalizes brain water content”. Also, the “30 days post-injury outcomes (Glasgow Outcome Scale-Extended, Disability Rating Scale), moderate TBI” value in data set [2] (moderate TBI patients, 30 days post-injury) was “better outcomes”. Also, the reduction in mortality in data set [2] (moderate to severe TBI patients, 72 hours of continuous intravenous Prog) is listed as 50%. In data set [2] (patients with severe brain injuries, 30 days post-injury), the “30 days post-injury outcomes (Glasgow Outcome Scale-Extended, Disability Rating Scale), severe brain injuries” value is “little measurable difference”. For the same compound, the “neurological outcomes at six months” value in data set [2] (severe TBI patients, six months) is listed as “better neurological outcomes long-term”. Besides, in the data set on males, the “conversion of testosterone to dihydrotestosterone” value is “inhibits the conversion of testosterone to dihydrotestosterone”, the “size of reproductive organs” value is reported as “reduces the size of reproductive organs” and the spermatogenesis entry is on record as “suppresses spermatogenesis”. Moreover, the “edema in both rodent sexes” value in the data set with rats following injury (both rodent sexes) is reported as “effectively attenuates edema”. Besides, in the data set with rats following injury, the “factors of cell death (caspase-3) and gliosis (GFAP)” value is “decreased of the presence of the factors of cell death (caspase-3) and gliosis (GFAP)”; the “inflammatory factors (TNF-α and IL-β)” value is “inhibiting inflammatory factors (TNF-α and IL-β)”. For the same compound, the “Neurological Severity Score (motor and cognitive functioning)” value in the data set on rats following injury (rats) is listed as “significant improvements”.
With `CC(=O)[C@@H]1CC[C@@H]2[C@H]3CCC4=CC(=O)CC[C@@]4(C)[C@@H]3CC[C@]21C` [ent-Prog, ent-progesterone], the “brain water content (measure of edema)” value in the data set with rats suffering from TBI is given as “normalizes brain water content”. Besides, the “anti-oxidant activity of glutathione reductase” value in the data set with glutathione reductase was “significantly increases the anti-oxidant activity of glutathione reductase”. For the same compound, in data set [3], the “activation of PR-mediated transcription” value is listed as “does not activate PR-mediated transcription”.
